# From publication PMC5275761 (Biochemistry, 2016)
# Molecular target: CYP3A4 (Homo sapiens, UniProt P08684, S18F)
# Assay: Stopped-flow spectroscopy of ligand binding to CYP3A4 nanodiscs
# Details: faster in POPC nanodiscs
compound,measurement,value
"C[C@]12CC[C@H]3[C@@H](CCC4=CC(=O)CC[C@@]43C)[C@@H]1CC[C@@H]2O [TST, testosterone]",rate constant for binding in POPC nanodiscs relative to 25% POPC/75% DMPC nanodiscs,~ 4 fold
